Laboratory results taken from US9808527B2, “Methods and compositions for treating HIV infections” (priority 2006, dated 2017).
“Also recorded” adds a separate entry of the source. Like-named read-outs stand apart in the source and are kept apart here.

Assays:
[1] = molecular target: T1, CFP- and YFP-tagged HIV-1 protease subunits (Human immunodeficiency virus type 1 group M subtype B, UniProt P12497); type: cell-based; conditions: for inhibition of protease dimerization: Cos-7 cells; for dose response of dimerization inhibition: 0.001-10 μM (GRL-0026A 0.1-10 μM), 72 hrs
T1 construct: expressed in transfected cells; host or cells: Cos-7
Description: After 72 hr, cultured cells were examined in the FRET-HIV-1 assay system using confocal microscopy Fluoview FV500 confocal laser scanning microscope, and CFP^A/B were determined and plotted. […] The FRET efficiency was determined following acceptor photobleaching as previously described (Bastiaens et al., EMBO 1996; Siegel et al., Science's stke 2000; Firulli et al., Nature genetics, 2005; Szczesna et al., JBC 2003). Dequenching of the donor CFP by selective photobleaching of the acceptor YFP was performed by first obtaining YFP and CFP images at the same focal plane, followed by illuminating for 3 min the same image at wavelength of 488 nm with a laser power set at the maximum intensity to bleach YFP and re-capturing the same CFP and YFP images. The changes in the CFP and YFP fluorescence intensity in the images of selected regions were examined and quantified using Olympus FV500 Image software system. Background values were obtained from the regions where no cells were present and were subtracted from the values for the cells examined in all calculations. For each chimeric protein, the data were obtained from at least three independent experiments. FRET efficiency was determined using the formula: ET=(1−(IDA/ID))×100, where IDA and ID represent the steady-state donor fluorescence in the presence and absence of the acceptor, respectively. Digitized image data obtained from the experiment were prepared for presentation using Photoshop 6.0 (Adobe systems, Mountain View, Calif.). Ratios of intensities of ECFP fluorescence after photobleaching to ECFP fluorescence prior to photobleaching were determined. The ratios of more than 1 indicate that dimerization of CFP- and YFP-tagged protease subunits occurred and those of less than 1 indicate that dimerization was blocked by the test agent.
Generation of FRET-based HIV-1 expression assay. The basic concepts of the intermolecular fluorescence resonance energy transfer (FRET)-based HIV-1-expression assay (FRET-HIV-1 assay) are shown in FIG. 7. Within a plasmid (pHIV-1NL4-3), which encodes a full-length molecular infectious HIV-1 clone, the gene encoding a cyan fluorescent donor protein (CFP) was attached to the downstream end (C-terminus) of the gene encoding an HIV-1 protease subunit through the flexible linker added (five alanines), generating pHIV-1NL4-3/CFP (FIG. 7A). Within the other plasmid (pHIV-1NL4-3), the gene encoding a yellow fluorescent acceptor protein (YFP) was attached to the downstream end of protease-encoding gene in the same manner, generating pHIV-1NL4-3/YFP. Both CFP and YFP were designed to have phenylalanine and proline in the connection with reverse transcriptase so that the protease is cleaved from reverse transcriptase when two subunits dimerize and the dimerized protease acquires enzymatic activity. […] A focused laser beam excitation of CFP (triggered by Helium-Cadmium laser) results in rapid energy transfer to YFP, and most of the fluorescence photons are emitted by YFP (Miyawaki et al. Nature 388(6645):882-887 (1997)). If the dimerization is blocked, the average distance between CFP and YFP becomes larger and the energy transfer rate is decreased and the fraction of photons emitted by YFP is lowered.
In order to interpret the energy transfer efficiency quantitatively, an acceptor photobleaching technique was used, in which the change in CFP emission quenching is measured by comparing the value before and after selectively photobleaching YFP, which prevents problems associated with variable expression levels.

HIV-1LAI = experiment: MTT assay, MT-2 cells exposed to HIV-1LAI (acute HIV-1 infection assay); type: cell-based
Description: Drug susceptibility assay. The susceptibility of HIV-1LAI, HIV-2EHO, HIV-2ROD, to various drugs and the cytotoxicity of those drugs was determined by using the MTT assay. Briefly, MT-2 cells (2×10^4/mL) were exposed to 100 TCID50s (50% tissue culture infectious doses) of HIV-1LAI, HIV-2EHO, or HIV-2ROD in the presence or absence of various concentrations of drugs in 96-well microculture plates and were incubated at 37° C. for 7 days. After 100 μL of the medium was removed from each well, 3-(4,5-dimethylthiazol-2-yl)-2,5-diphenyltetrazolium bromide (MTT) solution (10 μL, 7.5 mg/mL in phosphate-buffered saline) was added to each well in the plate, followed by incubation at 37° C. for 4 hours. […] All assays were performed in duplicate or triplicate. To determine the sensitivity of HIV-1Ba-L, HIV-1ERS104 pre, and clinical multi-drug-resistant HIV-1 isolates and different subtypes of HIV-1 isolates to drugs, phytohemagglutinin-activated peripheral blood mononuclear cells (PHA-PBMs; 10^6/mL) were exposed to 50 TCID50 (50% tissue infectious dose) of each HIV-1 isolate and cultured in the presence or absence of various concentrations of drugs in 10-fold serial dilutions in 96-well microtiter culture plates. To determine the drug susceptibility of certain laboratory HIV-1 strains (HIV-1NL4-3), MT-4 cells were used as target cells. MT-4 cells (10^5/mL) were exposed to 100 TCID50 of wild type HIV-1NL4-3 and PI-resistant HIV-1NL4-3 in the presence or absence of various concentrations of drugs and were incubated at 37° C. On day 7 of culture, the supernatant was harvested and the amount of p24 Gag protein was determined by using a fully automated chemiluminescent enzyme immunoassay system (Lumipulse F; Fujirebio Inc., Tokyo, Japan) (22). […] All assays were performed in duplicate or triplicate.

HIV-1 protease = molecular target: T2, HIV-1 protease (Human immunodeficiency virus type 1 group M subtype B, UniProt P04585, C555A/C583A/L521I/L551I/Q495K/V491I); experiment: biochemical; type: biochemical
T2 construct: Wild-type PR at final concentrations of 160-190 nM were added
Excerpt: Enzyme kinetics. The chromogenic substrate Lys-Ala-Arg-Val-Nle-p-nitroPhe-Glu-Ala-Nle-amide (Sigma, St. Louis, Mo.) was used to determine the kinetic parameters (Kovalevsky et al. J Mol Biol 363(1):161-173 (2006), Ghosh et al. J Med Chem 49(17):5252-5261 (2006)). […] The kcat and Km values were obtained employing standard data fitting techniques for a reaction obeying Michaelis-Menten kinetics. The data curves were fitted using SigmaPlot 8.0.2 (SPSS Inc., Chicago, Ill.). The active enzyme concentrations were calculated from the intercept of the linear fit to the IC50 versus [S] plots with the IC50 axis. The Ki values were obtained from the IC50 values estimated from an inhibitor dose-response curve with the spectroscopic assay using the equation Ki=(IC50-[E]/2)/(1+[S]/Km), where [E] and [S] are the PR and substrate concentrations, respectively (Maibaum & Rich J Med Chem 31(34):625-629 (1988)). The Ki values were measured at four to five substrate concentrations. The measurement was repeated at least three times to produce the average values.

HIV = conditions: read-out: ID50 (the source's name); cited from earlier work
[2] = Human immunodeficiency virus 1, MT2, 168 h, read-out: IC50 against HIV-1LAI, MT-2 cells, 100 TCID50 of HIV-1LAI, MTT assay on day 7
[3] = MT-2 cells, 100 TCID50 of HIV-1LAI, MTT assay on day 7, read-out: IC50 against HIV-1LAI

CCCCN1C(=O)[C@@H]([C@H](O)C2CCCCC2)NC(=O)C12CCN(Cc1ccc(Oc3ccc(C(=O)O)cc3)cc1)CC2 [aplaviroc]
inhibition of protease dimerization ([1]; 1 μM): did not block the dimerization; also recorded: failed to inhibit the dimerization; also recorded: failed to inhibit HIV-1 protease dimerization

Cc1nc(COc2ccc(C[C@H](NC(=O)O[C@H]3CO[C@H]4OCC[C@H]43)[C@H](O)CN(CC(C)C)S(=O)(=O)c3ccc4c(c3)OCO4)cc2)cs1 [BCV, brecanavir]
IC50 (HIV-1LAI; [2]): 0.2 nM
inhibition of protease dimerization ([1]; 1 μM): disrupt protease dimerization
dose response of dimerization inhibition [1]: Dose-responsive dimerization inhibition
Ki (HIV-1 protease): 0.0068 nM

CC(C)CN(CC(O)C(Cc1ccccc1)NC(=O)OC1COC2OCCC12)S(=O)(=O)c1ccc(N)cc1 (stereo not shown)
IC50 (HIV): 4.5 nM

COc1ccc(S(=O)(=O)N(CC(C)C)CC(O)C(Cc2ccccc2)NC(=O)OC2COC3OCCC23)cc1 (stereo not shown) [drawing 20]
IC50 (HIV): 1.4 nM

COc1ccc(S(=O)(=O)N(CC(C)C)CC(O)C(Cc2ccccc2)NC(=O)OC2COC3OCCCC23)cc1 (stereo not shown)
IC50 (HIV): 4.5 nM

CCC[C@@]1(CCc2ccccc2)CC(O)=C([C@H](CC)c2cccc(NS(=O)(=O)c3ccc(C(F)(F)F)cn3)c2)C(=O)O1 [TPV, tipranavir]
IC50 (HIV-1LAI; [2]): 100 nM

Cc1ccc(S(=O)(=O)N(CC(C)C)CC(O)C(Cc2ccccc2)NC(=O)OC2COC3OCCC23)cc1 (stereo not shown)
IC50 (HIV): 3.5 nM

COc1ccc(S(=O)(=O)N(CC(C)C)C[C@@H](O)[C@H](Cc2ccccc2)NC(=O)C[C@H]2CO[C@H]3OCC[C@@H]23)cc1 [GRL-0026A]
IC50 (HIV-1LAI; [3]): 480 nM
dose response of dimerization inhibition [1]: Dose-responsive dimerization inhibition

Cc1ccnc2c1NC(=O)c1cccnc1N2C1CC1 [NVP, nevirapine]
inhibition of protease dimerization ([1]; 1 μM): failed to inhibit the dimerization
inhibition of protease dimerization ([1]; 1 μM, listed as nevirapine): did not block the dimerization; also recorded: failed to inhibit HIV-1 protease dimerization

COc1ccc(S(=O)(=O)N(CC(C)C)CC(O)C(Cc2ccccc2)NC(=O)OC2COC3OCCC23)cc1 (stereo not shown) [TMC126]
IC50 (HIV-1LAI; [2]): 0.3 nM
IC50 (HIV-1LAI; Human immunodeficiency virus 1, MT2, 168 h, read-out: MTT assay (IC50, nM), Human CD4+ MT-2 cells, 100 TCID50 of HIV-1LAI, day 7): 0.3 nM
inhibition of protease dimerization ([1]; 1 μM): dimerization was effectively blocked; also recorded: disrupt protease dimerization
dose response of dimerization inhibition [1]: Dose-responsive dimerization inhibition

Nc1nc(NC2CC2)c2ncn([C@H]3C=C[C@@H](CO)C3)c2n1 [ABC, abacavir]
inhibition of protease dimerization ([1]; 10 μM): failed to inhibit the dimerization
inhibition of protease dimerization ([1]; 10 μM, listed as abacavir): did not block the dimerization; also recorded: failed to inhibit HIV-1 protease dimerization

CC(C)CN(C[C@@H](O)[C@H](Cc1ccccc1)NC(=O)O[C@@H]1C[C@@H]2CCO[C@@H]2C1)S(=O)(=O)c1ccc(CO)cc1 [GRL-06579A]
IC50 (HIV-1LAI; [3]): 1 nM
inhibition of protease dimerization ([1]; 1 μM): dimerization was effectively blocked; also recorded: disrupt protease dimerization
Ki (HIV-1 protease; wild-type PR, pH 5.0, read-out: Ki against HIV-1 protease): 0.0035 nM

O=C1Nc2ccc(Cl)cc2[C@@](C#CC2CC2)(C(F)(F)F)O1 [EFV, efavirenz]
inhibition of protease dimerization ([1]; 1 μM): failed to inhibit the dimerization
inhibition of protease dimerization ([1]; 1 μM, listed as efavirenz): did not block the dimerization; also recorded: failed to inhibit HIV-1 protease dimerization
